Where two headings read alike, the source gives them in different places.

One data set has as its system superoxide ion. Nature of the data set: McCord-Fridovich assay (SOD activity, inhibition of ferricytochrome c reduction by superoxide ion). The format is biochemical. The text has this:
The McCord–Fridovich assay was used to measure the SOD activity of the Mn^2+ complexes of our ligands formed in situ. This assay utilizes the reaction of xanthine oxidase with xanthine to produce superoxide ion which, in turn, reduces ferricytochrome C. The reduction of ferricytochrome C is monitored at 550 nm in the absence and presence of SOD mimics to determine the concentration at which the complexes inhibit ferricytochrome C reduction by 50%, their IC50 value. […] Stock solutions of cytochrome C, xanthine, xanthine oxidase, catalase, and MnCl2 were also prepared with this buffer. The temperature of the reactions was held constant at 25 °C using a Peltier attachment to the spectrophotometer. For a typical reaction, a solution was prepared in a cuvette containing 50 μM cytochrome c, 50 μM xanthine, 30 μg/mL catalase, and enough buffer to provide a total of 3 mL of solution. Approximately 100 μg/mL xanthine oxidase was added to initiate the reaction. This quantity was adjusted to give an initial velocity of 0.025–0.030 ΔAbs550nm/min. The reaction was monitored at 550 nm. After 2.5 min, a quantity of MnCl2 was added and the absorbance was monitored for another 2.5 min. Reactions were run in triplicate for each different concentration of Mn^2+ examined, and percent inhibition was calculated as %I=(V0−Vf/V0)×100% , where V 0 and V f are the initial and final velocities respectively. Plots of %I vs [Mn^2+] were used to determine the IC50 for each complex. To verify the fidelity of the McCord-Fridovich assay, the production of urate by the xanthine/xanthine oxidase reaction at 290 nm in the absence and presence of each complex, and no inhibition at a concentration higher than the IC50 was observed.
The SOD-like activity of Mn^2+ complexes of the tripodal ligands was evaluated using the McCord-Fridovich assay. This is an indirect assay that examines the reduction of ferricytochrome c by superoxide ion in the absence and presence of SOD or potential SOD mimetic compounds. The reaction of xanthine with xanthine oxidase provides a source of superoxide ion for the assay, and the reduction of ferricytochrome c is monitored at 550 nm. Given their low to moderate aqueous stability, it was not possible to use preformed complexes for these assays since we would not expect them to remain intact at the micromolar concentrations employed. Instead, Mn^2+ complexes were formed in situ, in buffered, aqueous solution (pH 7.5), by combining the ligands with manganese(II) chloride. In each case, an excess of ligand was included to produce Mn^2+ complexation as close to 100% as possible, while avoiding solubility issues. Percent complexation of the complexes under these conditions has been estimated from the 1:1 [MnL]^2+ stability constants (βMnL) in Table , based on the ligand complex concentration employed and an Mn^2+ concentration close to the IC50 values of the complexes (0.1 μM). We note that, given the high concentrations of ligand present in our experiments, higher speciation complexes (e.g., [MnL2]^2+) may also be present in our reaction solutions, resulting from adventitious mono-or bidentate-coordination of an additional ligand. These types of species have been observed previously for Mn^2+ complexes with a related ligand (HPClNOL), where HPClNOL is the tripodal ligand {1-[bis(pyridine-2-ylmethyl)-amino]-3-chloropropan-2-ol}, yet in a 50:50, MeOH/H2O solution where overall complex stability is expected to be much higher. Since we cannot rule out higher speciation under the conditions of these in situ experiments, our use of the term Mn^2+ complexes is meant to indicate all [MnL]^2+ or [MnL x ]^2+ species present in reaction solutions here.
Percent inhibition plots for MnCl2 in both HEPES and phosphate buffer are provided in Supporting Information (Figures S35 and S36). […]

The conditions of data set [1]: for Log βMnL (stability constant of the Mn^2+ complex) / pK aMnL(H2O) (acid dissociation constant of an associated aqua ligand) / Log Ka MnL(H2O) / Log bMnL: I = 0.10 M KCl; for Log βMnL (stability constant of the Mn^2+ complex) / pK aMnL(H2O) (acid dissociation constant of an associated aqua ligand): t = 25 °C; for conditional complex formation: McCord-Fridovich assay conditions, HEPES buffer pH 7.5, excess ligand, Mn^2+ 0.1 μM, estimated from βMnL; for Log Ka MnL(H2O) / Log bMnL: Table S35, t = 25°C; for % Complex (McCord-Fridovich assays): Table S37, ligand 0.001 M (TMPA, DPEA, DPMEA) or 0.01 M (PDEA, PDMEA), MnCl2 0.1 µM, estimated from stability studies; for % Complex (complex formation under cyclic voltammetry conditions): ligand 0.001 M (TMPA) or 0.01 M, MnCl2 0.001 M, estimated from complex stability studies.

Data set [2] in a line: Potentiometric titration of the acidified ligands (protonation constants). Conditions: I = 0.10 M KCl; for Log βLH1 (protonation constant of the ligand) / Log βLH2 (protonation constant of the ligand): t = 25 °C; for Log Ka1 / Log Ka2: Table S35, t = 25°C.
A short description of data set [3]: Cyclic voltammetry of Mn^2+ complexes formed in situ, Mn^III/Mn^II couple. The format is physicochemical. As to the method:
Cyclic voltammograms were recorded in 50 mM collidine buffer, pH 7.5, using an eDAQ 466 Integrated Potentiostat System with EChem software. Mn^2+ complexes were formed in situ in the presence of excess ligand to ensure a high percentage of complex formation (see Table S35 in Supporting Information) according to our stability studies vide infra. A glassy carbon working electrode, Ag/AgCl reference electrode, and Pt/Ti auxiliary electrode were employed. Prior to recording CVs, solutions were bubbled with nitrogen gas for 15 min to eliminate oxygen. CVs were then recorded at a scan rate of 100 mV/s.
Cyclic voltammograms of the Mn^2+ complexes of TMPA, DPEA, DPMEA, PDEA, and PDMEA, prepared in situ in buffered aqueous solution (pH 7.5), were recorded vs Ag/AgCl to determine the reduction potential (E 1/2) for the Mn^III/Mn^II couple. A cyclic voltammogram of MnCl2 in the buffered solution was also recorded for the purpose of comparison. Collidine buffer was employed for analysis since it tends to permit visualization of electrochemical waves for Mn^2+ complexes with pyridine-containing ligands, where other solvents/buffers can lead to ill-defined or absent features for these species. Ligand and MnCl2 concentrations were chosen to ensure near complete (N4 and N3O), or substantial (N2O2) complex formation according to our stability studies. For [MnTMPA]^2+, an equimolar amount of TMPA and MnCl2 were used (0.001 M), and for all other complexes, ligand concentration (0.01 M) was 10-fold the concentration of MnCl2 (0.001 M). In each case, […] waves were recorded where the difference in oxidation and reduction peak positions (ΔE p) is greater than 59 mV. Redox potential values (E 1/2), determined from the average of the positions of the oxidation and reduction peaks, are given in Table along with ΔE p values. The distinct positions of these peaks, relative to those of MnCl2, further corroborate [MnL]^2+ aqueous complex formation of the N4, N3O, and N2O2 ligands employed. Voltammograms can be found in Supporting Information (Figures S29–S34 ).

For data set [4] the following is noted: given for comparison to the complexes; reference not given; cited from earlier work.
Where [5] appears, read: HEPES buffer, pH 7.5, measured IC50 corrected for expected percent complex formation, read-out: apparent IC50.
[6] abbreviates: Mn^2+ complexes formed in situ with excess ligand, 50 mM HEPES buffer, pH 7.5, 25 °C, concentration as Mn^2+, read-out: measured IC50.
Where [7] appears, read: HEPES buffer, pH 7.5, estimated using kcat=kcytc[cytc]/IC50, k cytc = 2.6 × 10^5 M^–1 s^–1, [cyt c] = 5 × 10^–5 M.
[8] abbreviates: collidine buffer, pH 7.5, scan rate 100 mV/s, vs Ag/AgCl.

For the molecule `OCCN(Cc1ccccn1)Cc1ccccn1` [DPEA, N,N-Bis(2-pyridylmethyl)ethanolamine], the IC50 in the data set on superoxide ion (setting [5]) was found to be 140 nM. Further, in the data set on superoxide ion (setting [6]), the 50% inhibitory concentration (IC50) turned out to be 150 nM. Moreover, in data set [1], the “Log βMnL (stability constant of the Mn^2+ complex)” value (shortened to “Log βMnL”) was 4.12(1), the “pK aMnL(H2O) (acid dissociation constant of an associated aqua ligand)” value (shortened to “pK aMnL(H2O)”) was 5.63(1), the conditional complex formation is 92% and the “Log Ka MnL(H2O)” value was -5.63(1). Further, in data set [1], the “Log bMnL” value was 4.12(1), the “% Complex (McCord-Fridovich assays)” value is 92% and the “% Complex (complex formation under cyclic voltammetry conditions)” value is 98%. Besides, in data set [2], the “Log βLH1 (protonation constant of the ligand)” value (“Log βLH1” below) was 6.10(1), the “Log βLH2 (protonation constant of the ligand)” value (from here on “Log βLH2”) is 9.40(3), the “Log Ka1” value is given as 6.10(1) and the “Log Ka2” value is given as 9.40(3).

In the case of `COCCN(Cc1ccccn1)Cc1ccccn1` [DPMEA, 2-Methoxy-N,N-bis(pyridin-2-ylmethyl)ethan-1-amine], the IC50 in the data set with superoxide ion (setting [5]) stood at 480 nM. In the data set with superoxide ion (setting [6]), the IC50 came to 600 nM. Further, in data set [1], the “Log βMnL” value is on record as 3.71(2), the “pK aMnL(H2O)” value is on record as 6.07(2), the conditional complex formation was 80% and the “Log Ka MnL(H2O)” value is -6.07(2). Also, in data set [1], the “Log bMnL” value is 3.71(2), the “% Complex (McCord-Fridovich assays)” value is reported as 80% and the “% Complex (complex formation under cyclic voltammetry conditions)” value is reported as 97%. Further, in data set [2], the “Log βLH1” value is listed as 6.19(1), the “Log βLH2” value was 9.81(1), the “Log Ka1” value is 6.19(1) and the “Log Ka2” value is given as 9.81(1).

Consider `[Cl][Mn][Cl]` [MnCl2, manganese(II) chloride, reference compound], for which the k cat in the data set on superoxide ion (50 mM phosphate buffer, pH 7.5, estimated from IC50) was 2.8 × 10^7 M^–1 s^–1; in the data set with superoxide ion (setting [7]) it was 1.0 × 10^6 M^–1 s^–1. The IC50 was 470 nM in the data set on superoxide ion (50 mM phosphate buffer, pH 7.5, read-out: measured IC50) and 13000 nM in the data set on superoxide ion (setting [6]). Further, the “SOD activity in the range of the IC50 values of the complexes” value in the data set with superoxide ion (HEPES buffer) is given as “do not observe measurable SOD activity”. In data set [3] (collidine buffer, pH 7.5, scan rate 100 mV/s), the ΔE p came out at 0.285. In addition, in data set [3] (setting [8]), the E oxid stood at 0.415 V. Further, the E red in data set [3] (setting [8]) worked out at 0.130 V. For the same molecule, in data set [3] (collidine buffer, pH 7.5, average of oxidation and reduction peak positions), the “E 1/2 vs Ag/AgCl” value came to 0.273 V. Also, in data set [3] (converted using E 1/2 SHE = E 1/2 Ag/AgCl + 0.197 V), the “E 1/2 vs SHE” value was 0.470 V.

For `OCCN(CCO)Cc1ccccn1` [PDEA, 2,2′-((Pyridin-2-ylmethyl)azanediyl)bis(ethan-1-ol)], the IC50 with superoxide ion (setting [5]) came to 70 nM. For the same molecule, in the data set on superoxide ion (setting [6]), the IC50 was 110 nM. In data set [1], the “pK aMnL(H2O)” value is given as 7.00(2), the conditional complex formation is reported as 66%, the “Log Ka MnL(H2O)” value is reported as -7.00(2) and the “% Complex (McCord-Fridovich assays)” value is recorded as 66%. Also, in data set [1], the “% Complex (complex formation under cyclic voltammetry conditions)” value is 66%. Moreover, in data set [2], the “Log βLH1” value is 6.78(1) and the “Log Ka1” value is on record as 6.78(1).

As to `COCCN(CCOC)Cc1ccccn1` [PDMEA, 2-Methoxy-N-(2-methoxyethyl)-N-(pyridin-2-ylmethyl)ethan-1-amine], the k cat with superoxide ion (setting [7]) is 1.6 × 10^7 M^–1 s^–1. Further, the 50% inhibitory concentration (IC50) with superoxide ion (setting [5]) is 790 nM. For the same molecule, the IC50 with superoxide ion (setting [6]) was 1300 nM. In addition, in data set [1], the “Log βMnL” value was 2.32(2), the “pK aMnL(H2O)” value is listed as 6.6(1), the conditional complex formation was 61% and the “Log Ka MnL(H2O)” value was -6.6(1). Further, in data set [1], the “Log bMnL” value is on record as 2.32(2), the “% Complex (McCord-Fridovich assays)” value is 61% and the “% Complex (complex formation under cyclic voltammetry conditions)” value was 61%. For the same molecule, in data set [2], the “Log βLH1” value was 6.90(2) and the “Log Ka1” value is 6.90(2).

Consider `c1ccc(CN(Cc2ccccn2)Cc2ccccn2)nc1` [TMPA, Tris(pyridin-2-ylmethyl)amine], for which the IC50 with superoxide ion (setting [5]) is 300 nM. Moreover, the IC50 in the data set on superoxide ion (setting [6]) worked out at 300 nM. In addition, in data set [1], the “Log βMnL” value is 5.24(2), the “pK aMnL(H2O)” value is listed as 4.98(3), the conditional complex formation is listed as 99% and the “Log Ka MnL(H2O)” value was -4.98(3). For the same molecule, in data set [1], the “Log bMnL” value is reported as 5.24(2), the “% Complex (McCord-Fridovich assays)” value is given as 99% and the “% Complex (complex formation under cyclic voltammetry conditions)” value is reported as 93%. Further, in data set [2], the “Log βLH1” value is 6.01(1), the “Log βLH2” value is 10.08(1), the “Log Ka1” value is given as 6.01(1) and the “Log Ka2” value is listed as 10.08(1).

B1: Human MnSOD: human manganese superoxide dismutase enzyme (protein, UniProt P04179 25-222, looked up)
Superoxide dismutase [Mn], …: KHSLPDLPYDYGALEPHINAQIMQLHHSKHHAAYVNNLNVTEEKYQEALAKGDVTAQIALQPALKFNGGGHINHSIFWTNLSPNGGGEPKGELLEAIKRDFGSFDKFKEKLTAASVGVQGSGWGWLGFNKERGHLQIAACPNQDPLQGTTGLIPLLGIDVWEHAYYLQYKNVRPDYLKAIWNVINWENVTERYMACKK
Take B1: the “E 1/2 vs SHE of MnSOD enzymes” value in data set [4] is reported as 0.29 V.

For orientation: IC50 means the concentration at which inhibition is half-maximal.

The values above are taken from publication PMC12658643, “Effects of Ligand N and O Donor Content on the Structure, Aqueous Stability, and SOD Activity of a Series of Mn^2+ Complexes with Pyridine-Containing Tripodal Ligands” (ACS Omega, 2025).
